Laboratory results from patent US9023789B2, “Amylin analogs and pharmaceutical compositions thereof” (Novo Nordisk A/S, priority 2012, dated 2015).
In brackets after ≈: the same amount, converted by molar mass. Where two headings read alike, the source gives them in different places. Numbered stars: 1 amine (or outer) side, 2 acyl side, 3 side chain; on linkers, the order of the positions; unused ones are H or OH. Bridge positions count the residues as written; N and C are the ends. Side chains are listed from the residue outwards. Peptide text beside a SMILES is read from it. * marks the point of attachment. C20 diacid = O=C(O)CCCCCCCCCCCCCCCCCCC(=O)*; γGlu = O=C(O)[C@H](CCC(=O)[*:2])N[*:1]; AEEA = NCCOCCOCC(=O)O

Key:
[1] = ASSAY (III) ThT fibrillation assay for physical stability; format: physicochemical
Summary of the method: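 Physical stability scored by ThT fluorescence (444 nm excitation, 485 nm emission) tracked every 20 min during 37 °C incubation with 960 rpm shaking, ThT at 1 μM final. Values are replicate means with SD at chosen times; HPLC against pramlintide standard gives initial and post-assay soluble concentrations.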

[2] = ASSAY (IV) determination of solubility; format: physicochemical
Summary of the method: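 Solubility measured by UPLC of supernatant after centrifugation, following 18 h at room temperature. Peptide ([…] in water) was diluted 1:1 into 100 mM glycylglycine (pH 3.0, 4.0, 5.0) or bistrispropane (pH 6.0-8.0).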

rat calcitonin receptor = molecular target: T1, rat calcitonin receptor (Rattus norvegicus, UniProt P32214); assay: ASSAY (VIII) binding to the rat calcitonin receptor; conditions: Table 7, read-out: rCTR bind IC50
T1 construct: expressed in transfected cells; host or cells: BHK tk'ts 13 (transient, FuGENE 6), membranes
T1 sequence (P32214 25-479 isoform P32214-2 limits assumed): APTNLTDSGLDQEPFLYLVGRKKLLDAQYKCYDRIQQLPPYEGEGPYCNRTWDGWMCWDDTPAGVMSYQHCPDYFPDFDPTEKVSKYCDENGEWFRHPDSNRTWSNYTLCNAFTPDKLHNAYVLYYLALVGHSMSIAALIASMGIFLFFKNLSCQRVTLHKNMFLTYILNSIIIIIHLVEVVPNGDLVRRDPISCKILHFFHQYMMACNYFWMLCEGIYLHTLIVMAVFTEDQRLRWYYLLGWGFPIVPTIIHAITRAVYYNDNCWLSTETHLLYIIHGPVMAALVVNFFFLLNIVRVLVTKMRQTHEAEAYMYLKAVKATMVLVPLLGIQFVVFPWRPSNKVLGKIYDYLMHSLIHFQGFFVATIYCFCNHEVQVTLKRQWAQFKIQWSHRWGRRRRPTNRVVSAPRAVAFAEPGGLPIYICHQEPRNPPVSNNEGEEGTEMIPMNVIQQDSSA
Summary of the method: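 BHK tk′ts 13 cells, transient rat calcitonin receptor transfection; DMEM + 10% FBS; harvest ~48 h post-transfection; membrane prep.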

[3] = bistrispropane buffer, pH 6.5, read-out: Solubility pH 6.5 Concentration
[4] = bistrispropane buffer, pH 7.5, read-out: Solubility pH 7.5 Concentration
[5] = bistrispropane buffer, pH 6.0, read-out: Solubility pH 6.0 Concentration
[6] = bistrispropane buffer, pH 7.0, read-out: Solubility pH 7.0 Concentration
[7] = bistrispropane buffer, pH 8.0, read-out: Solubility pH 8.0 Concentration
[8] = glycylglycine buffer, pH 3.0, read-out: Solubility pH 3.0 Concentration
[9] = glycylglycine buffer, pH 4.0, read-out: Solubility pH 4.0 Concentration
[10] = glycylglycine buffer, pH 5.0, read-out: Solubility pH 5.0 Concentration

SMILES	ThT pH 4.0 lag time (h) [1]	solubility at 18 h [2, 3]	solubility at 18 h [2, 4]	solubility at 18 h [2, 5]	solubility at 18 h [2, 6]	solubility at 18 h [2, 7]	solubility at 18 h [2, 8]	solubility at 18 h [2, 9]	solubility at 18 h [2, 10]	IC50 (rat calcitonin receptor)
CC[C@H](C)[C@H](NC(=O)[C@H](C)NC(=O)CNC(=O)[C@H](Cc1ccccc1)NC(=O)[C@H](CC(N)=O)NC(=O)[C@@H]1CCCN1C(=O)[C@H](CO)NC(=O)[C@H](CO)NC(=O)[C@H](Cc1c[nH]cn1)NC(=O)[C@H](CCCNC(=N)N)NC(=O)[C@H](CC(C)C)NC(=O)[C@H](Cc1ccccc1)NC(=O)[C@H](CC(N)=O)NC(=O)[C@H](C)NC(=O)[C@H](CC(C)C)NC(=O)[C@H](CCCNC(=N)N)NC(=O)[C@H](CCC(N)=O)NC(=O)[C@@H](NC(=O)[C@H](C)NC(=O)[C@@H]1CSSC[C@H](NC(=O)[C@H](CCCNC(=N)N)NC(=O)[C@@H](N)CCCCNC(=O)CC[C@H](NC(=O)CCCCCCCCCCCCCCCCCCC(=O)O)C(=O)O)C(=O)N[C@@H](CC(N)=O)C(=O)N[C@@H]([C@@H](C)O)C(=O)N[C@@H](C)C(=O)N[C@@H]([C@@H](C)O)C(=O)N1)[C@@H](C)O)C(=O)N1CCC[C@H]1C(=O)N[C@@H](CO)C(=O)N[C@@H](CO)C(=O)N[C@H](C(=O)N[C@@H](CC(N)=O)C(=O)N[C@H](C(=O)NCC(=O)N[C@@H](CO)C(=O)N[C@@H](Cc1c[nH]cn1)C(=O)N[C@H](C(=O)N[C@@H](Cc1ccc(O)cc1)C(N)=O)[C@@H](C)O)C(C)C)[C@@H](C)O [Example 44] (H-K([γGlu-C20 diacid])RCNTATCATQRLANFLRHSSPNFGAIPSSTNVGSHTY-NH2; disulfide 3-8)	45 h	≥ 200 µM	87 µM (≈ 397 µg/mL)	≥ 200 µM	≥ 200 µM	39 µM (≈ 178 µg/mL)	≥ 200 µM	≥ 200 µM	≥ 200 µM	0.0197 µM
CC[C@H](C)[C@H](NC(=O)[C@H](C)NC(=O)CNC(=O)[C@H](Cc1ccccc1)NC(=O)[C@H](CC(N)=O)NC(=O)[C@@H]1CCCN1C(=O)[C@H](CO)NC(=O)[C@H](CO)NC(=O)[C@H](Cc1c[nH]cn1)NC(=O)[C@H](CCCNC(=N)N)NC(=O)[C@H](CC(C)C)NC(=O)[C@H](Cc1ccccc1)NC(=O)[C@H](Cc1c[nH]cn1)NC(=O)[C@H](C)NC(=O)[C@H](CC(C)C)NC(=O)[C@H](CCCNC(=N)N)NC(=O)[C@H](CCC(N)=O)NC(=O)[C@@H](NC(=O)[C@H](C)NC(=O)[C@@H]1CSSC[C@H](NC(=O)[C@@H](N)CCCCNC(=O)COCCOCCNC(=O)CCCCCCCCCCCCCCCCCCC(=O)O)C(=O)N[C@@H](CC(N)=O)C(=O)N[C@@H]([C@@H](C)O)C(=O)N[C@@H](C)C(=O)N[C@@H]([C@@H](C)O)C(=O)N1)[C@@H](C)O)C(=O)N1CCC[C@H]1C(=O)N[C@@H](CO)C(=O)N[C@@H](CO)C(=O)N[C@H](C(=O)N[C@@H](CC(N)=O)C(=O)N[C@H](C(=O)NCC(=O)N[C@@H](CO)C(=O)N[C@@H](CC(N)=O)C(=O)N[C@H](C(=O)N[C@@H](Cc1ccc(O)cc1)C(N)=O)[C@@H](C)O)C(C)C)[C@@H](C)O [Example 90]	10 h	≥ 200 µM	≥ 200 µM	≥ 200 µM	≥ 200 µM	≥ 200 µM	≥ 200 µM	≥ 200 µM	≥ 200 µM	0.0182 µM
CC[C@H](C)[C@H](NC(=O)[C@H](C)NC(=O)CNC(=O)[C@H](Cc1ccccc1)NC(=O)[C@H](CC(N)=O)NC(=O)[C@@H]1CCCN1C(=O)[C@H](CO)NC(=O)[C@H](CO)NC(=O)[C@H](Cc1c[nH]cn1)NC(=O)[C@H](CCCNC(=N)N)NC(=O)[C@H](CC(C)C)NC(=O)[C@H](Cc1ccccc1)NC(=O)[C@H](C)NC(=O)[C@H](C)NC(=O)[C@H](CC(C)C)NC(=O)[C@H](CCCNC(=N)N)NC(=O)[C@H](CCC(N)=O)NC(=O)[C@@H](NC(=O)[C@H](C)NC(=O)[C@@H]1CSSC[C@H](NC(=O)[C@@H](N)CCCCNC(=O)COCCOCCNC(=O)CC[C@H](NC(=O)CCCCCCCCCCCCCCCCCCC(=O)O)C(=O)O)C(=O)N[C@@H](CC(N)=O)C(=O)N[C@@H]([C@@H](C)O)C(=O)N[C@@H](C)C(=O)N[C@@H]([C@@H](C)O)C(=O)N1)[C@@H](C)O)C(=O)N1CCC[C@H]1C(=O)N[C@@H](CO)C(=O)N[C@@H](CO)C(=O)N[C@H](C(=O)N1CCC[C@H]1C(=O)N[C@H](C(=O)NCC(=O)N[C@@H](CO)C(=O)N[C@@H](CC(N)=O)C(=O)N[C@H](C(=O)N[C@@H](Cc1ccc(O)cc1)C(N)=O)[C@@H](C)O)C(C)C)[C@@H](C)O [Example 72] (H-K([AEEA-γGlu-C20 diacid])CNTATCATQRLAAFLRHSSPNFGAIPSSTPVGSNTY-NH2; disulfide 2-7 (inferred); N-terminus assumed)	13 h	≥ 200 µM	≥ 200 µM	≥ 200 µM	≥ 200 µM	194 µM (≈ 866 µg/mL)	≥ 200 µM	≥ 200 µM	≥ 200 µM	0.221 µM

More lines, now with the values ahead:

ThT pH 4.0 lag time (h) [1]	solubility at 18 h [2, 3]	solubility at 18 h [2, 4]	solubility at 18 h [2, 5]	solubility at 18 h [2, 6]	solubility at 18 h [2, 7]	solubility at 18 h [2, 8]	solubility at 18 h [2, 9]	solubility at 18 h [2, 10]	IC50 (rat calcitonin receptor)	SMILES
16 h	≥ 200 µM	≥ 200 µM	≥ 200 µM	≥ 200 µM	≥ 200 µM	≥ 200 µM	≥ 200 µM	≥ 200 µM	0.0216 µM	CC[C@H](C)[C@H](NC(=O)[C@H](C)NC(=O)CNC(=O)[C@H](Cc1ccccc1)NC(=O)[C@H](CC(N)=O)NC(=O)[C@@H]1CCCN1C(=O)[C@H](CO)NC(=O)[C@H](CO)NC(=O)[C@H](Cc1c[nH]cn1)NC(=O)[C@H](CCCNC(=N)N)NC(=O)[C@H](CC(C)C)NC(=O)[C@H](Cc1ccccc1)NC(=O)[C@H](CC(N)=O)NC(=O)[C@H](C)NC(=O)[C@H](CC(C)C)NC(=O)[C@H](CCCNC(=N)N)NC(=O)[C@H](CCC(N)=O)NC(=O)[C@@H](NC(=O)[C@H](C)NC(=O)[C@@H]1CSSC[C@H](NC(=O)[C@H](CCCCN)NC(=O)CC[C@H](NC(=O)CCCCCCCCCCCCCCCCCCC(=O)O)C(=O)O)C(=O)N[C@@H](CC(N)=O)C(=O)N[C@@H]([C@@H](C)O)C(=O)N[C@@H](C)C(=O)N[C@@H]([C@@H](C)O)C(=O)N1)[C@@H](C)O)C(=O)N1CCC[C@H]1C(=O)N[C@@H](CO)C(=O)N[C@@H](CO)C(=O)N[C@H](C(=O)N[C@@H](CC(N)=O)C(=O)N[C@H](C(=O)NCC(=O)N1CCC[C@H]1C(=O)N[C@@H](CCC(=O)O)C(=O)N[C@H](C(=O)N[C@@H](Cc1ccc(O)cc1)C(N)=O)[C@@H](C)O)C(C)C)[C@@H](C)O [Example 29] ({C20 diacid-γGlu}-KCNTATCATQRLANFLRHSSPNFGAIPSSTNVGPETY-NH2; disulfide 2-7)
45 h	≥ 200 µM	≥ 200 µM	≥ 200 µM	≥ 200 µM	≥ 200 µM	≥ 200 µM	≥ 200 µM	≥ 200 µM	0.0601 µM	CC[C@H](C)[C@H](NC(=O)[C@H](C)NC(=O)CNC(=O)[C@H](Cc1ccccc1)NC(=O)[C@H](CC(N)=O)NC(=O)[C@@H]1CCCN1C(=O)[C@H](CO)NC(=O)[C@H](CO)NC(=O)[C@H](Cc1c[nH]cn1)NC(=O)[C@H](CCCNC(=N)N)NC(=O)[C@H](CC(C)C)NC(=O)[C@H](Cc1ccccc1)NC(=O)[C@H](CCC(=O)O)NC(=O)[C@H](C)NC(=O)[C@H](CC(C)C)NC(=O)[C@H](CCCNC(=N)N)NC(=O)[C@H](CCC(N)=O)NC(=O)[C@@H](NC(=O)[C@H](C)NC(=O)[C@@H]1CSSC[C@H](NC(=O)[C@H](CCCCN)NC(=O)CC[C@H](NC(=O)CCCCCCCCCCCCCCCCCCC(=O)O)C(=O)O)C(=O)N[C@@H](CC(N)=O)C(=O)N[C@@H]([C@@H](C)O)C(=O)N[C@@H](C)C(=O)N[C@@H]([C@@H](C)O)C(=O)N1)[C@@H](C)O)C(=O)N1CCC[C@H]1C(=O)N[C@@H](CO)C(=O)N[C@@H](CO)C(=O)N[C@H](C(=O)N[C@@H](CC(N)=O)C(=O)N[C@H](C(=O)NCC(=O)N[C@@H](CCCCN)C(=O)N[C@@H](CC(N)=O)C(=O)N[C@H](C(=O)N[C@@H](Cc1ccc(O)cc1)C(N)=O)[C@@H](C)O)C(C)C)[C@@H](C)O [Example 36] ({C20 diacid-γGlu}-KCNTATCATQRLAEFLRHSSPNFGAIPSSTNVGKNTY-NH2; disulfide 2-7 (inferred))
